What was measured:
Format in all cases: biochemical
[1] = test system: human JAK1 (a.a. 837-1142); assay: In vitro JAK kinase assay (HTRF), JAK1; conditions: ratio of IC50s, 1 mM ATP
Experimental: (§1) Compounds herein were tested for inhibitory activity of JAK targets according to the following in vitro assay described in Park et al., Analytical Biochemistry 1999, 269, 94-104. The catalytic domains of human JAK1 (a.a. 837-1142), JAK2 (a.a. 828-1132) and JAK3 (a.a. 781-1124) were expressed using baculovirus in insect cells and purified. The catalytic activity of JAK1, JAK2 or JAK3 was assayed by measuring the phosphorylation of a biotinylated peptide. The phosphorylated peptide was detected by homogenous time resolved fluorescence (HTRF). IC50s of compounds were measured for each kinase in the 40 μL reactions that contain the enzyme, ATP and 500 nM peptide in 50 mM Tris (pH 7.8) buffer with 100 mM NaCl, 5 mM DTT, and 0.1 mg/mL (0.01%) BSA. For the 1 mM IC50 measurements, ATP concentration in the reactions was 1 mM. Reactions were carried out at room temperature for 1 hour and then stopped with 20 μL 45 mM EDTA, 300 nM SA-APC, 6 nM Eu-Py20 in assay buffer (Perkin Elmer, Boston, Mass.). Binding to the Europium labeled antibody took place for 40 minutes and HTRF signal was measured on a PHERA star plate reader (BMG, Cary, N.C.). The Example compounds were each tested in the Example A assay (see Table 1 for data for the compounds of the examples as tested by the assay of Example A at 1 mM ATP).

[2] = biological target: human JAK1 (a.a. 837-1142) (Homo sapiens, UniProt P23458); assay: In vitro JAK kinase assay (HTRF), JAK1; conditions: 1 mM ATP
Experimental: as §1

[3] = biological target: human JAK2 (a.a. 828-1132) (Homo sapiens (Human), UniProt O60674); assay: In vitro JAK kinase assay (HTRF), JAK2; set-up: key to JAK2 IC50 (nM): + indicates an IC50 of ≤100 nM; ++ indicates an IC50 of ≤1000 nM; +++ indicates an IC50 of ≤2000 nM; ++++ indicates an IC50 of >2000 nM; +++++ indicates that the IC50 was greater than the highest concentration tested; conditions: 1 mM ATP
Experimental: as §1

human JAK2 (a.a. 828-1132), sequence (O60674 828-1132): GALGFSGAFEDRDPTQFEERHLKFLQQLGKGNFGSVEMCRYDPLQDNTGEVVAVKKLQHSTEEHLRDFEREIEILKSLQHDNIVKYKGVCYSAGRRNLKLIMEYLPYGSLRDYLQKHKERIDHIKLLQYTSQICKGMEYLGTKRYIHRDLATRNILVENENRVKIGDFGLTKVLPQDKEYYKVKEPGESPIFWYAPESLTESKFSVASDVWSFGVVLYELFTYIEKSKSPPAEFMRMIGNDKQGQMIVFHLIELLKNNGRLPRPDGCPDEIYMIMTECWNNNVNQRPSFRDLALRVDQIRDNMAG

JAK2/JAK1 [1] | SMILES | further results
– | CCc1nc2cnc3ccsc3c2n1[C@@H]1CC[C@@H](CC#N)[C@H](O)C1 (single isomer, unassigned) [40 (second peak)] | IC50 [2]: > 2000 nM; JAK2 IC50 (nM) [3]: +++++
– | Cc1nc2cnc3ccsc3c2n1[C@@H]1CC[C@@H](CC#N)[C@H](O)C1 (single isomer, unassigned) [41 (second peak)] | IC50 [2]: > 2000 nM; JAK2 IC50 (nM) [3]: +++++
>10 | C[C@@H](O)c1nc2cnc3ccsc3c2n1[C@H]1CCCN(C(=O)CCC(F)(F)F)C1 [Example 52, (1R)-1-{1-[(3S)-1-(4,4,4-Trifluorobutanoyl)piperidin-3-yl]-1H-imidazo[4,5-d]thieno[3,2-b]pyridin-2-yl}ethanol] | JAK2 IC50 (nM) [3]: +++++
>10 | C[C@@H](O)c1nc2cnc3ccsc3c2n1[C@H]1CCN(CCCC#N)C1 [Example 65, 4-((3S)-3-{2-[(1R)-1-Hydroxyethyl]-1H-imidazo[4,5-d]thieno[3,2-b]pyridin-1-yl}pyrrolidin-1-yl)butanenitrile] | –
>10 | C[C@@H](O)c1nc2cnc3ccsc3c2n1[C@H]1CCN(CCCCC#N)C1 [Example 66, 5-((3S)-3-{2-[(1R)-1-Hydroxyethyl]-1H-imidazo[4,5-d]thieno[3,2-b]pyridin-1-yl}pyrrolidin-1-yl)pentanenitrile] | –
>10 | C[C@@H](O)c1nc2cnc3ccsc3c2n1[C@H]1CC[C@H](CC#N)[C@H](N)C1 [Example 67, ((1R,2R,4S)-2-Amino-4-{2-[(1R)-1-hydroxyethyl]-1H-imidazo[4,5-d]thieno[3,2-b]pyridin-1-yl}cyclohexyl)acetonitrile] | –
>10 | CC(N)c1nc2cnc3ccsc3c2n1[C@H]1CC[C@H](CC#N)OC1.O=C(O)C(F)(F)F (stereo partly drawn) [Example 68, {(2R,5S)-5-[2-(1-Aminoethyl)-1H-imidazo[4,5-d]thieno[3,2-b]pyridin-1-yl]tetrahydro-2H-pyran-2-yl}acetonitrile Trifluoro Acetate] | –
>10 | CC(=O)NC(C)c1nc2cnc3ccsc3c2n1[C@H]1CC[C@H](CC#N)OC1 (stereo partly drawn) [Example 69, N-(1-{1-[(3S,6R)-6-(Cyanomethyl)tetrahydro-2H-pyran-3-yl]-1H-imidazo[4,5-d]thieno[3,2-b]pyridin-2-yl}ethyl) acetamide] | –
>10 | CNC(C)c1nc2cnc3ccsc3c2n1[C@H]1CC[C@H](CC#N)OC1 (stereo partly drawn) [Example 70, ((2R,5S)-5-{2-[1-(Methylamino)ethyl]-1H-imidazo[4,5-d]thieno[3,2-b]pyridin-1-yl}tetrahydro-2H-pyran-2-yl)acetonitrile] | –
>10 | CC(F)c1nc2cnc3ccsc3c2n1[C@H]1CC[C@H](CC#N)OC1 (stereo partly drawn) [Example 71, {(2R,5S)-5-[2-(1-Fluoroethyl)-1H-imidazo[4,5-d]thieno[3,2-b]pyridin-1-yl]tetrahydro-2H-pyran-2-yl}acetonitrile] | –
>10 | N#CCc1nc2cnc3ccsc3c2n1[C@H]1CC[C@H](CC#N)OC1 [Example 73, {(2R,5S)-5-[2-(Cyanomethyl)-1H-imidazo[4,5-d]thieno[3,2-b]pyridin-1-yl]tetrahydro-2H-pyran-2-yl}acetonitrile] | –
>10 | N#CCc1nc2cnc3ccsc3c2n1[C@H]1CC[C@@H](CC#N)OC1 [Example 74, {(2S,5S)-5-[2-(Cyanomethyl)-1H-imidazo[4,5-d]thieno[3,2-b]pyridin-1-yl]tetrahydro-2H-pyran-2-yl}acetonitrile] | –
>10 | C[C@@H](O)c1nc2cnc3ccsc3c2n1[C@H]1CC[C@H](CNS(C)(=O)=O)OC1 [Example 75, N-[((2R,5S)-5-{2-[(1R)-1-Hydroxyethyl]-1H-imidazo[4,5-d]thieno[3,2-b]pyridin-1-yl}tetrahydro-2H-pyran-2-yl)methyl]methanesulfonamide] | –
>10 | CC(C)OC(=O)NC[C@H]1CC[C@H](n2c([C@@H](C)O)nc3cnc4ccsc4c32)CO1 [Example 76, Isopropyl [((2R,5S)-5-{2-[(1R)-1-hydroxyethyl]-1H-imidazo[4,5-d]thieno[3,2-b]pyridin-1-yl}tetrahydro-2H-pyran-2-yl)methyl]carbamate] | –
>10 | COC(=O)NC[C@H]1CC[C@H](n2c([C@@H](C)O)nc3cnc4ccsc4c32)CC1 [Example 78, Methyl [(trans-4-{2-[(1R)-1-hydroxyethyl]-1H-imidazo[4,5-d]thieno[3,2-b]pyridin-1-yl}cyclohexyl)methyl]carbamate] | –
>10 | CC(=O)NC[C@H]1CC[C@H](n2c([C@@H](C)O)nc3cnc4ccsc4c32)CC1 [Example 79, N-[(trans-4-{2-[(1R)-1-Hydroxyethyl]-1H-imidazo[4,5-d]thieno[3,2-b]pyridin-1-yl}cyclohexyl)methyl]acetamide] | –
>10 | C[C@@H](O)c1nc2cnc3ccsc3c2n1[C@H]1CC[C@H](CNS(C)(=O)=O)CC1 [Example 80, N-[(trans-4-{2-[(1R)-1-Hydroxyethyl]-1H-imidazo[4,5-d]thieno[3,2-b]pyridin-1-yl}cyclohexyl)methyl]methanesulfonamide] | –
>10 | C[C@@H](O)c1nc2cnc3ccsc3c2n1[C@H]1CC[C@H](CNC(=O)N(C)C)CC1 [Example 81, N′-[(trans-4-{2-[(1R)-1-Hydroxyethyl]-1H-imidazo[4,5-d]thieno[3,2-b]pyridin-1-yl}cyclohexyl)methyl]-N,N-dimethylurea] | –
>10 | CCOC(=O)NC[C@H]1CC[C@H](n2c([C@@H](C)O)nc3cnc4ccsc4c32)CC1 [Example 82, Ethyl [(trans-4-{2-[(1R)-1-hydroxyethyl]-1H-imidazo[4,5-d]thieno[3,2-b]pyridin-1-yl}cyclohexyl)methyl]carbamate] | –
>10 | CCCOC(=O)NC[C@H]1CC[C@H](n2c([C@@H](C)O)nc3cnc4ccsc4c32)CC1 [Example 83, Propyl [(trans-4-{2-[(1R)-1-hydroxyethyl]-1H-imidazo[4,5-d]thieno[3,2-b]pyridin-1-yl}cyclohexyl)methyl]carbamate] | –
>10 | CC(C)OC(=O)NC[C@H]1CC[C@H](n2c([C@@H](C)O)nc3cnc4ccsc4c32)CC1 [Example 84, Isopropyl [(trans-4-{2-[(1R)-1-hydroxyethyl]-1H-imidazo[4,5-d]thieno[3,2-b]pyridin-1-yl}cyclohexyl)methyl]carbamate] | –
>10 | C[C@@H](O)c1nc2cnc3ccsc3c2n1[C@H]1CC[C@H](CNC(=O)OC2CCOC2)CC1 (stereo partly drawn) [Example 85, Tetrahydrofuran-3-yl [(trans-4-{2-[(1R)-1-hydroxyethyl]-1H-imidazo[4,5-d]thieno[3,2-b]pyridin-1-yl}cyclohexyl)methyl]carbamate] | –
>10 | COC(=O)NC[C@H]1CC[C@H](n2c(CC#N)nc3cnc4ccsc4c32)CC1 [Example 86, Methyl ({trans-4-[2-(cyanomethyl)-1H-imidazo[4,5-d]thieno[3,2-b]pyridin-1-yl]cyclohexyl}methyl)carbamate] | –
>10 | CCOC(=O)NC[C@H]1CC[C@H](n2c(CC#N)nc3cnc4ccsc4c32)CC1 [Example 87, Ethyl ({trans-4-[2-(cyanomethyl)-1H-imidazo[4,5-d]thieno[3,2-b]pyridin-1-yl]cyclohexyl}methyl)carbamate] | –
>10 | CC(C)OC(=O)NC[C@H]1CC[C@H](n2c(CC#N)nc3cnc4ccsc4c32)CC1 [Example 88, Isopropyl ({trans-4-[2-(cyanomethyl)-1H-imidazo[4,5-d]thieno[3,2-b]pyridin-1-yl]cyclohexyl}methyl)carbamate] | –
>10 | CCC(=O)NC[C@H]1CC[C@H](n2c(CC#N)nc3cnc4ccsc4c32)CC1 [Example 89, N-({trans-4-[2-(Cyanomethyl)-1H-imidazo[4,5-d]thieno[3,2-b]pyridin-1-yl]cyclohexyl}methyl)propanamide] | –
>10 | N#CCc1nc2cnc3ccsc3c2n1[C@H]1CC[C@H](CC#N)CC1 [Example 90, {1-[trans-4-(Cyanomethyl)cyclohexyl]-1H-imidazo[4,5-d]thieno[3,2-b]pyridin-2-yl}acetonitrile] | –
>10 | N#CC[C@H]1CC[C@H](n2c(CO)nc3cnc4ccsc4c32)CO1 [Example 91, {(2R,5S)-5-[2-(Hydroxymethyl)-1H-imidazo[4,5-d]thieno[3,2-b]pyridin-1-yl]tetrahydro-2H-pyran-2-yl}acetonitrile] | –

SMILES | JAK2/JAK1 [1] | further results
C[C@@H](O)c1nc2cnc3ccsc3c2n1[C@H]1CC[C@H](CC#N)[C@H](O)C1 (single isomer, unassigned) [36 (first peak)] | >10 | IC50 [2]: ≤ 100 nM; IC50 [3]: > 2000 nM
C[C@@H](O)c1nc2cnc3ccsc3c2n1[C@@H]1CC[C@@H](CC#N)[C@@H](O)C1 (single isomer, unassigned) [36 (second peak)] | >10 | IC50 [2]: ≤ 100 nM; IC50 [3]: ≤ 1000 nM

— US11161855B2, “Tricyclic fused thiophene derivatives as JAK inhibitors” (Incyte Corporation, priority 2012, dated 2021)
